Test results reported in US20230372364A1, “METHOD OF TREATING GABA MEDIATED DISORDERS” (Eliem Therapeutics (UK) Ltd, priority 2020, published 2023).
Several values for one entry are separate records, joined by “and”; a condition that tells them apart may be missing. Equal values may be shown once. Entries after “also recorded” stand apart in the source; their conditions may differ. Marks after values point to notes of the source that are not given here.

Legend:
[1] = tested on: dogs; test: Repeat-dose toxicity up to four weeks, dogs; assay type: in vivo, dog; details: 28-day repeat dose
Method: The no-observed-adverse-effect-level doses were 7.5/mg/kg/day and 6 mg/kg/day in rats and dogs, respectively.
Justification for Dose—Based on the nonclinical toxicology data, there is not an unreasonable risk of adverse effects. Using the FDA guidance “Estimating the Maximum Safe Starting Dose in Initial Clinical Trials for Therapeutics in Adult Healthy Volunteers” (July, 2005), the calculated human equivalent dose would be 1/2 mg/kg/day or 3/24 mg/kg/day, respectively, based on the 28-day rat no-observed-adverse-effect-level dose of 7.5 mg/kg/day or the 28-day dog no-observed-adverse-effect-level dose of 6 mg/kg/day, respectively. For both species the no-observed-adverse-effect-level dose was the highest dose tested. For a 60 kg participant, this would result in a maximum safe starting dose of (human equivalent dose/10) of 7.2 mg/day or 19/6 mg/day. The starting doses in this Phase 1 study are 5 mg, equivalent to […] for a 60 kg participant. […] These anticipated Cmax and AUC values are ˜80- and 50-fold lower, respectively, than that observed at the no-observed-adverse-effect-level dose in dogs.

[2] = 60 mg once daily for seven days, pharmacokinetics in humans (MAD); details: human
[3] = molecular target: α4β3δ Extra synaptic receptors (GABAA) (Homo sapiens, UniProt P28472+P48169); test: GABAA receptor potency and efficacy (EC50, Emax), α4β3δ; assay type: cell-based
Sequence of α4β3δ Extra synaptic receptors (GABAA) (P48169 36-554): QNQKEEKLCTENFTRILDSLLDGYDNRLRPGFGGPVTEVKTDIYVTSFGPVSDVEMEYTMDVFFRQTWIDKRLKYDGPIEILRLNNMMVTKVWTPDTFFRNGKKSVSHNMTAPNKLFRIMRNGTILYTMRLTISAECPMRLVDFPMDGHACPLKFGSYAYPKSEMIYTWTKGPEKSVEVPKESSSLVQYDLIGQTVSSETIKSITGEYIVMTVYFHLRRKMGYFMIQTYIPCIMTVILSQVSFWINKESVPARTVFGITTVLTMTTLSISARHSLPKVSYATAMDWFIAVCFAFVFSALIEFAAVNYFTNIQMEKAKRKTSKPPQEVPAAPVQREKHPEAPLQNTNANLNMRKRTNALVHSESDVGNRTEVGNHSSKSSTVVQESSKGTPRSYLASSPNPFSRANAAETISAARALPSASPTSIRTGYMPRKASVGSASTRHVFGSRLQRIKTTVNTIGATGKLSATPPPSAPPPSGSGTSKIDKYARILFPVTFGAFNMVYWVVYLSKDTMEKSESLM
Sequence of α4β3δ Extra synaptic receptors (GABAA) (P28472 26-473): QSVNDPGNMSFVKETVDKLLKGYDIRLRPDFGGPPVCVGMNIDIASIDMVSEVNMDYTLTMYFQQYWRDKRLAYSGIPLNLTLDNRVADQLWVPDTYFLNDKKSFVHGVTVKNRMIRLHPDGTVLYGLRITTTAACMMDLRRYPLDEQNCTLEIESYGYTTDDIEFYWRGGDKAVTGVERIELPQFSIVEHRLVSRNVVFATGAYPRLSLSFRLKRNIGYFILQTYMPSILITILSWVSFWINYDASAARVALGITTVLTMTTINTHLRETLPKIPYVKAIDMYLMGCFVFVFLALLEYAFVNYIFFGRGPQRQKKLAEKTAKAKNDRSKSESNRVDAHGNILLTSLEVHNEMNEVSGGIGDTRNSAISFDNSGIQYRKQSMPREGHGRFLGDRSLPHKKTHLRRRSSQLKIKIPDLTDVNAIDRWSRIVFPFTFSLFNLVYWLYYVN
Sequence of α4β3δ Extra synaptic receptors (GABAA) (O14764 25-452 partner): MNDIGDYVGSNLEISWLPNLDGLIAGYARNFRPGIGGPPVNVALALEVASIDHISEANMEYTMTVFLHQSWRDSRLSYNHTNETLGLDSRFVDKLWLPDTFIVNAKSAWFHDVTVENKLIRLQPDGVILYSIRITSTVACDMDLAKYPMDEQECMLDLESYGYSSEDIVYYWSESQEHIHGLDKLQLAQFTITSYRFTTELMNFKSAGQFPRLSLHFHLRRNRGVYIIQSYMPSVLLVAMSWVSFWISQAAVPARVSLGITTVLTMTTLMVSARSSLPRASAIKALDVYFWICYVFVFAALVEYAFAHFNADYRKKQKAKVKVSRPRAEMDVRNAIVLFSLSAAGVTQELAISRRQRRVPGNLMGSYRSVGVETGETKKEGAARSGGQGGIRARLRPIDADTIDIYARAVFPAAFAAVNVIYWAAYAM

[4] = tested on: human subjects; test: 60 mg once daily for seven days, adverse events in humans (MAD); assay type: in vivo; details: for AE Sleepiness (Nervous system disorders): listed three times in the table; for AE Headache (Nervous system disorders): listed twice in the table
Method: The effects of CV-10155 in relation to administration at different times of the day and states of feeding were analyzed in humans. Subjects were given 60 mg CV-10155 orally once per day for seven consecutive days, and plasma concentrations were measured at various time points. Doses were administered either in the morning to fasted subjects or in the evening to fed subjects.
Adverse events observed following administration of a single dose of CV-10155 in the evening in a fed state are summarized on Table 6.
A comparison of adverse events observed following administration to fasted subjects in the morning and to fed subjects in the evening is provided in Table 7.
The tolerability of the neurosteroids CV-10155, Sage-217, and Praxis-114 in human subjects were compared. The results from subjects that received 45 mg Praxis-114 in the evening, 60 mg Praxis-114 in the evening, 80 mg Praxis-114 in the evening, or 60 mg CV-10155 in the evening are provided in Table 8, and the results form subjects that received 30 mg Sage-217 or 20 mg Sage-217 are provided in Table 9.

[5] = tested on: human subjects; test: Single ascending oral dose safety and tolerability in humans; assay type: in vivo
[6] = 60 mg, evening, fed state, N = 9
[7] = 60 mg, morning, fasted state, N = 9
[8] = HV, 60 mg evening dosing, n = 12
[9] = human, 60 mg, evening, fed state, one line per subject and event

C[C@@]1(O)CC[C@@]2(C)[C@@H](CC[C@@H]3[C@@H]2CC[C@]2(C)[C@@H](C(=O)Cn4cc(C#N)cn4)CC[C@@H]32)C1 [CV-10155, 1-[2-[(3R,5S,8R,9S,10S,13S,14S,17S)-3-hydroxy-3,10,13-trimethyl-1,2,4,5,6,7,8,9,11,12,14,15,16,17-tetradecahydrocyclopenta[a]phenanthren-17-yl]-2-oxoethyl]pyrazole-4-carbonitrile]
no-observed-adverse-effect-level dose [1]: 6 mg/kg/day | ratio of Cmax/trough on day 7 ([2]; 60 mg daily in the evening in a fed state): 3.47 | ratio of Cmax/trough on day 7 ([2]; 60 mg daily in the morning in a fasted state): 6.09 | difference in absorption, morning fasted vs evening fed ([2]; 60 mg oral once per day for seven days): no significant difference | Ratio (Cmax/Cmin) ([2]; 60 mg, day 7 MAD, morning dosing): 6.07 | AUC0-inf ([2]; plasma, oral, 60 mg): 2900 ng·h/mL | concentration at 7 day ([2]; plasma, oral, 60 mg): 41.5 ng/mL | fold higher efficiency at extra synaptic vs. synaptic channels [3]: 3 fold | preferential modulation of α4β3δ subtype compared to α1β2γ2 subtype ([3]; isomerically pure compositions): preferentially modulate | AE Back pain (Musculoskeletal and connective tissue disorders) [4, 6]: 1 # | AE Bloating (Gastrointestinal disorders) [4, 6]: 1 # | AE Dizziness (Nervous system disorders) [4, 6]: 1 # | AE Sleepiness (Nervous system disorders) [4, 6]: 1 # | AE Headache (Nervous system disorders) [4, 6]: 2 # | AE Dizziness (Nervous system disorders) [4, 7]: 1 # | AE Feeling sleepy (Nervous system disorders) [4, 7]: 1 # | AE Feeling tired (General disorders and administration site conditions) [4, 7]: 2 # | AE Tiredness (General disorders and administration site conditions) [4, 7]: 3 # | AE Sleepiness (Nervous system disorders) [4, 7]: 9 # | AE Headache (Nervous system disorders) [4, 7]: 2 # | Dizziness, AEs % of subjects [4, 8]: 16.7% | Headache, AEs % of subjects [4, 8]: 8.3% | Somnolence, AEs % of subjects [4, 8]: 8.3% | AE (per subject) [4, 9]: Dizziness; also recorded: Headache; also recorded: Somnolence; also recorded: Back pain; also recorded: Abdominal | AE duration [4, 9]: 20.50 h and 13.00 h and 14.50 h and 10.62 h and 39.25 h and 13.25 h and 06.50 h | AE onset from dose [4, 9]: pre-dose | AE severity [4, 9]: Mild (6×) and Moderate | adverse effects that interfere with sleeping ([4]; human, oral administration in the evening to fed subjects): does not produce adverse effects that interfere with sleeping | dose-limiting adverse event [5]: Ataxia | SAD MTD ([5]; single ascending dose): ETX-155 135 mg SAD MTD | adverse events observed at 200 mg ([5]; single oral dose 200 mg, fasted): ataxia, tremor and tachycardia | most common adverse events ([5]; single oral dose, mild to moderate, only observed at the highest doses): Dizziness and somnolence | dose-limiting adverse events ([5]; single oral dose, range of 5-135 mg): No dose-limiting adverse events were observed
